# How the values were obtained:
# [1] = system: murine 4T1 triple-negative breast cancer model; test: Antitumour efficacy in murine 4T1 triple-negative breast cancer model; type: in vivo, BALB/c mice
# Procedure: Mice. Female, 5-week-old BALB/c mice were purchased from Charles River Laboratories (Wilmington, MA). All mice were quarantined for one week before use and kept in micro - isolator cages (four mice per cage) in a temperature - and humidity-controlled environment a s per the Division of Laboratory Animal Research (DLAR) of University of Kentucky. All mice were maintained in a pathogen-free environment under the care of DLAR of University of Kentucky. Our study was performed in compliance with the NIH guidelines (NIH Publication No. 85-23 Rev. 1985) for the care and use of laboratory animals and all experimental procedures were monitored and approved by the Institutional Animal Care and Use Committee (IACUC) of University of Kentucky (USA).
# In vivo studies with 1. Ten female BALB/c mice (5 weeks) were received from Charles River Laboratories (Wilmington, MA). […]
# being implanted with 4T1 cells (1 million) subcutaneously on their right flank. Three days post-implantation, the mice were administered with 10 mg/kg of 1 intraperitoneally (IP), 0.1 mL/mouse formulated as 1% DMSO, 10% Kolliphor, and 89% PBS. The control group was injected with a PBS solution containing 1% DMSO and […]. The injection of 1, and […]
# tumour-size and body-weight measurements were performed three days a week, and the mice were euthanised after 16 days (n = 5 for 1 and n = 5 for vehicle control). […]
# Hematoxylin and eosin staining. The mice used in the in vivo comparative experiment of 1 and the vehicle control were sacrificed at day 16 post tumo ur cells (4T1) injection. The tissues (liver, kidney, and tumour) were fixed in freshly prepared paraformaldehyde (4% in PBS) for 24 h and processed for paraffin sectioning. Tissue sections of 5 µm were stained with hematoxylin and eosin and used for histological examination. A total of 3 sections per tissue (spanning the full depth of the tissue) were examined and photographed using a Nikon
# HEK 293 cells = test: Monolayer cytotoxicity (MTT assay), HEK 293 cells; type: cell-based; details: 72 h incubation
# Description: (§1) Cell Lines and Cell Culture Conditions. The human mammary epithelial HMLER and HMLER-shEcad cell lines were kindly donated by Prof. R. A. Weinberg (Whitehead Institute, MIT). The human epithelial breast MCF10A, breast adenocarcinoma MDA-MB-231 and MDA-MB-468, murine epithelial breast 4T1, and embryonic kidney HEK 293 cell lines were acquired from American Type Culture Collection (ATCC, Manassas, VA, USA).
# (§2) HMLER, HMLER-shEcad, and MCF10A cells were maintained in Mammary Epithelial Cell Growth Medium (MEGM) with supplements and growth factors (BPE, hydrocortisone, hEGF, insulin, and gentamicin/amphotericin-B). MDA-MB-231, MDA-MB-468, 4T1, and HEK 293 cells were maintained in Dulbecco's Modified Eagle's Medium (DMEM) supplemented with fetal bovine serum (10 %) and penicillin/streptomycin (1 %). The cells were grown at 310 K in a humidified atmosphere containing 5% CO2.
# Monolayer Cytotoxicity Studies. Exponentially growing cells were seeded at a density of approximately 5 × 10^3 cells per well in 96-well flat-bottomed microplates and allowed to attach for 24 h prior to addition of compounds. […]
# media. […] The optical density was measured at 550 nm using a 96-well multiscanner autoreader. Absorbance values were normalised to (DMSO-containing) control wells and plotted as concentration of test compound versus % cell viability. […]
# HMLER-shEcad cells = test: Monolayer cytotoxicity (MTT assay), HMLER-shEcad cells; type: cell-based, human; details: 72 h incubation, MTT
# Description: as §1, §2
# Monolayer Cytotoxicity Studies. Exponentially growing cells were seeded at a density of approximately 5 × 10^3 cells per well in 96-well flat-bottomed microplates and allowed to attach for 24 h prior to addition of compounds. Various concentrations of the test compounds (0.0004-100 μM) were added and incubated for 72 h at 37 °C (total volume 200 μl). Stock solutions of the compounds were prepared as 10 mM DMSO solutions and diluted using cell […]
# media. The final concentration of DMSO in each well was ≤1 %. After 72 h, 20 μl of MTT (4 mg mL-1 in PBS) was added to each well and the plates incubated for an additional 4 h at 37 °C. The media/MTT mixture was eliminated and DMSO (100 μl per well) was added to dissolve the formazan precipitates. The optical density was measured at 550 nm using a 96-well multiscanner autoreader. Absorbance values were normalised to (DMSO-containing) control wells and plotted as concentration of test compound versus % cell viability. IC50 values were interpolated from the resulting dose dependent curves. The reported IC50 values are the average of three independent experiments (n = 18). […]
# After incubation for 16 […]
# h, the fluorescence of the solutions was read at 590 nm (λex = 560 nm). Viable mammospheres reduce the amount of the oxidised TOX8 form (blue) and concurrently increase the amount of the fluorescent TOX8 intermediate (red), indicating the degree of mammosphere cytotoxicity caused by the test compound. […]
# Cellular Uptake. To measure the cellular uptake of 1-3 about 1 million HMLER-shEcad cells were treated with 1-3 (0.25 μM) at 37 °C for 24 h. After incubation, the media was removed, the cells were washed with PBS (2 mL × 3) and harvested. The number of cells was counted at this stage, using a haemocytometer. This mitigates any cell death induced by 1-3 at the administered concentration and experimental cell loss. The cellular pellets were dissolved in 65% HNO3 (250 µL) overnight. A cellular pellet of HMLER-shEcad cells treated with 1 was also used to determine the gold content in the nuclear, cytoplasmic and membrane fractions. The Thermo Scientific NE-PER Nuclear and Cytoplasmic Extraction Kit was used to extract and separate the nuclear, cytoplasmic and membrane fractions. The fractions were dissolved in 65% HNO3 (250 µL final volume) overnight. All samples were diluted 17-fold with water and analysed using inductively coupled plasma mass spectrometry (ICP-MS, Thermo Scientific ICAP-Qc quadrupole ICP mass spectrometer). Gold levels are expressed as mass of Au (ng) per million cells. Results are presented as the mean of four determinations for each data point.
# Intracellular ROS Assay. […]
# [2] = Water-octanol partition coefficient (shake-flask, UV-vis); type: physicochemical; details: room temperature 24 h
# Procedure: Measurement of water-octanol partition coefficient (LogP). The LogP values for 1-8 were determined using the shake-flask method and UV-vis spectroscopy. The 1-octanol used in this experiment was pre-saturated with water. An aqueous solution of 1-8 (500 μL, 100 μM) was incubated with 1-octanol (500 μL) in a 1.5 mL tube. The tube was shaken at room temperature for 24 h. The two phases were separated by centrifugation and the 1-8 content in each phase was determined by UV-vis spectroscopy. […]
# [3] = system: HMLER-shEcad mammospheres; test: Mammosphere viability assay (TOX8); type: cell-based, human; details: 5 days incubation
# Procedure: Tumorsphere Formation and Viability Assay.
# in ultralow-attachment 96-well plates (Corning) and incubated in MEGM supplemented with B27 (Invitrogen), 20 ng mL-1 EGF and 4 μg mL-1 heparin (Sigma) for 5 days. […] The viability of the mammospheres was determined by addition of a resazurin-based reagent, TOX8 (Sigma). After incubation for 16 h, the fluorescence of the solutions was read at 590 nm (λex = 560 nm). Viable mammospheres reduce the amount of the oxidised TOX8 form (blue) and concurrently increase the amount of the fluorescent TOX8 intermediate (red), indicating the degree of mammosphere cytotoxicity caused by the test compound. Fluorescence values were normalised to DMSO-containing controls and plotted as concentration of test compound versus % mammospheres viability. IC50 values were interpolated from the resulting dose dependent curves. The reported IC50 values are the average of three independent experiments, each consisting of two replicates per concentration level (overall n = 6).
# [4] = 10 mg kg−1 intraperitoneally three times a week, 16 days, vs vehicle
# [5] = day 16, compared to control group
structure (smiles),measurement,setting,value
COc1ccc2c(c1)c(CC(=O)[O][Au][PH](c1ccccc1)(c1ccccc1)c1ccccc1)c(C)n2C(=O)c1ccc(Cl)cc1 [complex 1],body weight,[1]; [4],maintained their body weight
same,tumour growth,[1]; [4],significant tumour growth inhibition
same,cellularity in kidney or liver tissue (H&E histology),[1]; [5],no alteration to cellularity
same,cellularity in tumour tissue (H&E histology),[1]; [5],Reduced cellularity
same,IC50,HEK 293 cells,1920 ± 230 nM
same,IC50,HMLER-shEcad cells,56 ± 1 nM
same,LogP value,[2],1.64 ± 0.42
same,IC50,[3],2000 ± 100 nM
